From patent US12600696B2 (XENIOPRO GMBH, priority 2017, dated 2026)

System: CAL-27 cells (human tongue squamous cell carcinoma cells)
Assay: alamarBlue proliferation assay with CAL-27 cells
Assay type: cell-based
Settings: for activity at 40 µM / activity at 20 µM: Homo sapiens, 120 h; for activity at 40 µM: relative to DMSO basis level 1.0, read-out: weighted arithmetic mean (AVEw) of normalized fluorescence intensity, activity range; for activity at 20 µM: relative to DMSO baseline level of 1.0, read-out: AVEw, weighted arithmetic mean of normalized fluorescence intensity values (Activity Range), CAL-27 proliferation
In short: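 CAL-27 cells seeded at 2000 per well, exposed to compound in 0.1% DMSO for 5 days, then alamarBlue fluorescence (ex 560/em 590 nm). Values normalized to DMSO wells (1.0) as weighted means with combined standard deviation; growth inhibition judged at 20 μM reference concentration.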

| SMILES | activity at 40 µM | activity at 20 µM (5 days) | AVEw, weighted arithmetic mean of normalized fluorescence intensity values, CAL-27 proliferation (40 μM (control RES 40 μM), 5 days, relative to DMSO baseline level of 1.0) | weighted arithmetic mean (AVEw) of normalized fluorescence intensity (control RES at 20 μM, relative to DMSO basis level 1.0) |
| --- | --- | --- | --- | --- |
| NC(=O)c1ccc(Oc2ccc(C3CC4CCC3C4)cc2)cc1 (racemic) [Compound 159, (±)-4-(4-(Bicyclo[2.2.1]heptan-2-yl)phenoxy)benzamide] | 60 to 70% | – | – | – |
| CCCc1ccc(Oc2ccc(C(=O)NO)cc2)cc1 [Compound 166, N-hydroxy-4-(4-propylphenoxy)benzamide] | 0 to 20% | 20 to 40% | – | – |
| CCC(C)(C)c1ccc(Oc2ccc(C(=O)NO)cc2)cc1 [Compound 171, N-hydroxy-4-(4-(tert-pentyl)phenoxy)benzamide] | – | 0 to 20% | – | – |
| O=C(NO)c1ccc(Oc2ccc(C3CCCCC3)cc2)cc1 [Compound 182, 4-(4-cyclohexylphenoxy)-N-hydroxybenzamide] | – | 20 to 40% | – | – |
| O=C(NO)c1ccc(Oc2ccc(C34CC5CC(CC(C5)C3)C4)cc2)cc1 [Compound 186, 4-(4-(Adamantan-1-yl)phenoxy)-N-hydroxybenzamide] | – | 0 to 20% | – | – |
| CC(C)c1ccc(Oc2ccc(C(=O)NO)cn2)cc1 [Compound 272, N-hydroxy-6-(4-isopropylphenoxy)nicotinamide] | 0 to 20% | 0 to 20% | – | – |
| CCC(C)(C)c1ccc(Oc2ccc(C(=O)NO)cn2)cc1 [Compound 273, N-hydroxy-6-(4-(tert-pentyl)phenoxy)nicotinamide] | – | 0 to 20% | – | – |
| O=C(NO)c1ccc(Oc2ccc(C3CCCCC3)cc2)nc1 [Compound 284, 6-(4-Cyclohexylphenoxy)-N-hydroxynicotinamide] | – | 0 to 20% | – | – |
| O=C(NO)c1ccc(Oc2ccc(C3CC4CCC3CC4)cc2)nc1 (stereo not shown) [Compound 287, 6-(4-((1s,4s)-bicyclo[2.2.2]octan-2-yl)phenoxy)-N-hydroxynicotinamide] | 0 to 20% | 20 to 40% | – | – |
| O=C(NO)c1ccc(Oc2ccc(C34CC5CC(CC(C5)C3)C4)cc2)nc1 [Compound 288, 6-(4-((3r,5r,7r)-adamantan-1-yl)phenoxy)-N-hydroxynicotinamide] | – | 20 to 40% | – | – |
| CNC(=O)c1ccc(Oc2ccc(C(F)(F)F)cc2)nc1 [Compound 300, N-methyl-6-(4-(trifluoromethyl)phenoxy)nicotinamide] | 80 to 90% | 80 to 90% | – | – |
| CN(C)C(=O)c1ccc(Oc2ccc(C3CCCCC3)cc2)nc1 [Compound 334, 6-(4-cyclohexylphenoxy)-N,N-dimethylnicotinamide] | 80 to 90% | – | – | – |
| O=C(NO)c1ccc(Oc2ccc(C34CC5CC(CC(C5)C3)C4)cc2)c(F)c1 [Compound 544, 4-(4-(Adamantan-1-yl)phenoxy)-3-fluoro-N-hydroxybenzamide] | – | 0 to 20% | – | – |
| O=C(NO)c1cnc(Oc2ccc(C3CCCCC3)cc2)c(F)c1 [Compound 644, 6-(4-Cyclohexylphenoxy)-5-fluoro-N-hydroxynicotinamide] | – | 0 to 20% | – | – |
| Oc1ccc(C=Cc2cc(O)cc(O)c2)cc1 [RES, resveratrol, reference compound] | 50% | 90% | 0.4 ± 0.0 | 0.9 ± 0.0 |
